These results are taken from patent US20150337276A1, “ENZYME HAVING A NMDA RECEPTOR ANTAGONIST ACTIVITY AND/OR AN ANTICHOLINERGIC ACTIVITY” (priority 2012, published 2015).

Series [1] has as its system cortical neurons. Description: Neurite network density (NF-H labeling) of cortical neurons under basal conditions, potential neurotoxic effect. The following applies: enzymes 2.5 μM for 30 hours, glutamate 100 μM for 6 hours.
Series [2] concerns glutamate intoxicated-cortical neurons. Description: Neurite network density (NF-H labeling) of glutamate-intoxicated cortical neurons, neuroprotective effect. Type of series: cell-based, rat. The following applies: intoxicated conditions (glutamate 100 μM, 6 hours). The protocol:
Culture conditions: 37° C., 5% CO2
At DIV9, the reference MK-801 (10 μM) was pre-incubated for 30 minutes before glutamate intoxication. Cortical neurons were then incubated for 6 hours with 100 μM of glutamate in presence or not (intoxicated control) of test compounds, the solvent control or the reference. A control without glutamate (non-intoxicated control) was performed in parallel. All experimental conditions were performed in n=3.
All the images were taken under the same conditions.
Raw data were analyzed with Microsoft Excel® software.

Series [3] deals with NMDA receptor. Description: NMDA current recording by patch clamp (whole cell, voltage clamp -30 mV) in dorsal root ganglia nociceptor neurons. The following applies: for Percentage inhibition of NMDA current: NMDA 250 μM, holding potential -30 mV. It is filed as cell-based, rat. Here is the method: In one embodiment, the NMDA antagonist activity of the enzyme of the invention is measured by electrophysiology, as shown in Example 3. In one embodiment, said measurement is performed on dorsal root ganglion nociceptor neurons of rats.
The culture conditions of dorsal root ganglia neurons of rats were adapted from Hao and Delmas (J Neurosci. 2010, 6; 30(40)).
NMDA current recordings are performed in neurons of small and medium diameter (nociceptors). Neurons are identified visually and electrophysiologically by measuring their membrane capacitance. […] These neurons express the NMDA receptor in the dorsal root ganglia. Nociceptors are specifically identified by the presence of TTX-resistant Nav1.8 sodium current. Each neuron is tested for the presence upstream of Nav1.8.
NMDA currents are low amplitude currents. Thus, electrical leakage is carefully checked during recording. Infusion or injection of products was performed close to neurons to avoid changes in concentration (dilution effect). Media infusion was extemporaneously daily handled. Products OPN-001 were diluted from stock solutions and stored at 4° C. The data were collected using an Axopatch amplifier 200-B, the Clampex software (PClamp V10, Molecular Device) and stored and analyzed using Clampfit.
Background: In patch-clamp work, channel activity is measured electrically.

As for `N[C@@H](CCC(=O)O)C(=O)O` [Glutamate], the “Mean NF-H-positive neurite surface” value in series [1] (basal conditions (no glutamate), n=3) was 21503 μm^2. The “Intoxication (%)” value in series [1] (basal conditions, normalized to control) was determined as 34%.
Consider `C[C@]12N[C@H](Cc3ccccc31)c1ccccc12` [MK801], for which the “Mean NF-H-positive neurite surface” value in series [2] (enzymes 2.5 μM pre-incubated 24 hours, MK801 10 μM pre-incubated 30 minutes, n=3) worked out at 32319 μm^2. Moreover, in series [2] (enzymes 2.5 μM, MK801 10 μM), the “Protection (%)” value is listed as about 96%.
Turning to `[Cl-].[Cl-].[Zn+2]` [ZnCl2], the “efficiency in inhibiting NMDA current, in words” value in series [3] (5 nM, alone) was “not efficient”. Further, the “time for the blocking effect on NMDA current to occur, in words” value in series [3] (50 nM and 500 nM) is recorded as “within seconds”. In addition, the “inhibition of the NMDA current, trace (FIG. 1B), in words” value in series [3] (50 nM, 200 μl applied alone, NMDA 250 μM for 80 s) is listed as “inhibits all of the NMDA current”. Also, the “Percentage inhibition of NMDA current” value turned out to be 0% in series [3] (test substance 5 nM); 100% in series [3] (test substance 50 nM, mean of neurons); 100% in series [3] (test substance 500 nM, mean of neurons).
